According to ChEMBL document CHEMBL1201862, “PubChem BioAssay data set” (2004):
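Each compound was tested at five concentrations against cells in 96-well plates for 48 hours. Here, GI50 denotes the concentration required for 50% inhibition of growth.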 Activity calls are given as the source filed them. Rule as the data show it: active = GI50 up to about 1.1 µM and inactive = higher.

What was measured:
Assay in all cases: inhibition of tumour cell growth, NCI panel, 48 h
OVCAR-4 = tested on: OVCAR-4
MDA-N = tested on: MDA-N
MOLT-4 = tested on: MOLT-4
PC-3 = tested on: PC-3
SNB-19 = tested on: SNB-19
786-0 = tested on: 786-0
SK-MEL-2 = tested on: SK-MEL-2
NCI-H23 = tested on: NCI-H23
IGROV-1 = tested on: IGROV-1
Hs-578T = tested on: Hs-578T
MCF7 = tested on: MCF7
HOP-92 = tested on: HOP-92
KM12 = tested on: KM12
RXF 393 = tested on: RXF 393
OVCAR-3 = tested on: OVCAR-3
SF-295 = tested on: SF-295
A498 = tested on: A498
K562 = tested on: K562
HL-60 = tested on: HL-60
T47D = tested on: T47D

| Compound | GI50 (OVCAR-4) | GI50 (MDA-N) | GI50 (MOLT-4) | GI50 (PC-3) | GI50 (SNB-19) | GI50 (786-0) | GI50 (SK-MEL-2) | GI50 (NCI-H23) | GI50 (IGROV-1) | GI50 (Hs-578T) | GI50 (MCF7) | GI50 (HOP-92) | GI50 (KM12) | GI50 (RXF 393) | GI50 (OVCAR-3) | GI50 (SF-295) | GI50 (A498) | GI50 (K562) | GI50 (HL-60) | GI50 (T47D) |
| --- | --- | --- | --- | --- | --- | --- | --- | --- | --- | --- | --- | --- | --- | --- | --- | --- | --- | --- | --- | --- |
| Cc1ccc(C(=O)CCC2C(=O)CC(C)(C)CC2=O)cc1 | > 100 µM (inactive) | > 100 µM (inactive) | > 100 µM (inactive) | > 100 µM (inactive) | > 100 µM (inactive) | > 100 µM (inactive) | > 100 µM (inactive) | > 100 µM (inactive) | > 100 µM (inactive) | > 100 µM (inactive) | 53 µM (inactive) | 44.9 µM (inactive) | > 100 µM (inactive) | > 100 µM (inactive) | > 100 µM (inactive) | > 100 µM (inactive) | – | – | – | – |
| COC(=O)[C@@H]1CN(C(=O)Cc2ccccc2)C(=O)N1 | > 100 µM (inactive) | – | > 100 µM (inactive) | > 100 µM (inactive) | > 100 µM (inactive) | > 100 µM (inactive) | – | > 100 µM (inactive) | > 100 µM (inactive) | > 100 µM (inactive) | – | > 100 µM (inactive) | > 100 µM (inactive) | > 100 µM (inactive) | > 100 µM (inactive) | > 100 µM (inactive) | > 100 µM (inactive) | > 100 µM (inactive) | > 100 µM (inactive) | > 100 µM (inactive) |
| Cc1cc(O)c2c(=O)c3ccccc3[nH]c2c1 | 15.1 µM (inactive) | 42.9 µM (inactive) | 36.3 µM (inactive) | 19.3 µM (inactive) | 38.5 µM (inactive) | 15.6 µM (inactive) | 81.7 µM (inactive) | 15 µM (inactive) | 13.3 µM (inactive) | 45.3 µM (inactive) | 0.133 µM (active) | 25.9 µM (inactive) | 18.5 µM (inactive) | 27 µM (inactive) | 29 µM (inactive) | 20 µM (inactive) | 32.8 µM (inactive) | 9.77 µM (inactive) | 28.3 µM (inactive) | – |
| COc1ccc(CNc2nc(NCc3ccc(OC)cc3)nc(NC3CCCC3)n2)cc1 | > 25.4 µM (inactive) | – | 4.59 µM (inactive) | 2.84 µM (inactive) | 6.28 µM (inactive) | 4.05 µM (inactive) | – | 2.99 µM (inactive) | 13.4 µM (inactive) | 3.07 µM (inactive) | 3.31 µM (inactive) | – | 0.28 µM (active) | 0.665 µM (active) | 2.76 µM (inactive) | 2.18 µM (inactive) | – | 2.99 µM (inactive) | 3.34 µM (inactive) | – |
| Cc1ccc(NC(=O)/C(CC2Nc3c(ccc4c3C(=O)c3ccccc3C4=O)NC2O)=N/NC(C)(C)C)cc1 (stereo unspecified) | 17.7 µM (inactive) | 14.1 µM (inactive) | 2.37 µM (inactive) | 15.8 µM (inactive) | 28 µM (inactive) | 4.52 µM (inactive) | 18.9 µM (inactive) | 17.7 µM (inactive) | 8.07 µM (inactive) | 9.4 µM (inactive) | 23.7 µM (inactive) | 16.8 µM (inactive) | 8.85 µM (inactive) | 11.1 µM (inactive) | 18.7 µM (inactive) | 27.9 µM (inactive) | – | – | 3.97 µM (inactive) | – |
| Sc1nnc(CNc2ccc(-c3nnc(S)n3-c3ccc(Cl)cc3)cc2)n1-c1ccc(Cl)cc1 | 29.5 µM (inactive) | 26.1 µM (inactive) | 26.2 µM (inactive) | 36 µM (inactive) | 26.5 µM (inactive) | 26.9 µM (inactive) | 22.4 µM (inactive) | 39 µM (inactive) | 3.21 µM (inactive) | – | 40.3 µM (inactive) | 23.9 µM (inactive) | 18.5 µM (inactive) | 45.4 µM (inactive) | – | 26.9 µM (inactive) | 55.2 µM (inactive) | 30.8 µM (inactive) | – | – |
| CN(CC(=O)O)c1ncc2c(n1)-c1ccccc1OC2 | > 100 µM (inactive) | > 100 µM (inactive) | > 100 µM (inactive) | > 100 µM (inactive) | > 100 µM (inactive) | > 100 µM (inactive) | > 100 µM (inactive) | > 100 µM (inactive) | > 100 µM (inactive) | > 100 µM (inactive) | > 100 µM (inactive) | > 100 µM (inactive) | > 100 µM (inactive) | > 100 µM (inactive) | – | > 100 µM (inactive) | > 100 µM (inactive) | > 100 µM (inactive) | > 100 µM (inactive) | – |
| [O-][N+]1=[N+]([O-])[C@@H](c2ccccc2)[C@H]1c1ccccc1 | 25 µM (inactive) | 16.6 µM (inactive) | 21.3 µM (inactive) | 17.5 µM (inactive) | 18.4 µM (inactive) | 13.5 µM (inactive) | 17.9 µM (inactive) | 16.5 µM (inactive) | 12.6 µM (inactive) | > 100 µM (inactive) | 15.7 µM (inactive) | 15.6 µM (inactive) | 22.4 µM (inactive) | 14.8 µM (inactive) | 15.2 µM (inactive) | 19.9 µM (inactive) | 27.1 µM (inactive) | 3.52 µM (inactive) | 2.05 µM (inactive) | – |
| COc1ccc(C2C=C(c3ccc4c(c3)OCO4)Oc3c2c(=O)oc2ccccc32)cc1OC (stereo unspecified) | > 100 µM (inactive) | 0.15 µM (active) | 0.968 µM (active) | 0.429 µM (active) | 0.422 µM (active) | 0.43 µM (active) | – | 0.446 µM (active) | 0.634 µM (active) | 0.513 µM (active) | 0.434 µM (active) | 34 µM (inactive) | 0.443 µM (active) | 0.252 µM (active) | 0.475 µM (active) | 0.279 µM (active) | 0.502 µM (active) | 0.299 µM (active) | 0.248 µM (active) | – |
| COc1cc2c(c(OC(C)=O)c1OC(C)=O)-c1ccc(SC)c(=O)cc1C(NC(C)=O)CC2 (stereo unspecified) | 9.82 µM (inactive) | – | 1.52 µM (inactive) | – | 2.65 µM (inactive) | 3.87 µM (inactive) | 0.565 µM (active) | 1.92 µM (inactive) | 4.45 µM (inactive) | – | – | 0.741 µM (active) | 0.544 µM (active) | 8.91 µM (inactive) | 0.5 µM (active) | 2.23 µM (inactive) | 4.83 µM (inactive) | 0.483 µM (active) | 0.375 µM (active) | – |
| COC(=O)NN=C1C(C)(C)C(=NNC(=O)OC)C1(C)C | > 100 µM (inactive) | – | > 100 µM (inactive) | – | > 100 µM (inactive) | > 100 µM (inactive) | > 100 µM (inactive) | > 48.9 µM (inactive) | > 100 µM (inactive) | – | – | > 100 µM (inactive) | > 100 µM (inactive) | > 100 µM (inactive) | > 100 µM (inactive) | > 100 µM (inactive) | > 100 µM (inactive) | > 100 µM (inactive) | > 100 µM (inactive) | – |
| COc1cc2c(cc1OCCCN1CCN(C)CC1)N=C[C@@H]1CCCN1C2=O | 2.15 µM (inactive) | – | 0.32 µM (active) | 2.67 µM (inactive) | 4.06 µM (inactive) | 3.4 µM (inactive) | 2.42 µM (inactive) | – | – | 5.12 µM (inactive) | 1.22 µM (inactive) | 0.75 µM (active) | 1.57 µM (inactive) | 1.87 µM (inactive) | 2.06 µM (inactive) | 2 µM (inactive) | 2.34 µM (inactive) | 0.679 µM (active) | 1.41 µM (inactive) | – |
